Results published in article PMC4076210, “Discovery of Novel AKT Inhibitors with Enhanced Anti-Tumor Effects in Combination with the MEK Inhibitor” (PLoS ONE, 2014).

Legend:
cKit(V560G)(h) = target: T1, cKit(V560G)(h) (Homo sapiens, UniProt P10721, V560G); experiment: Kinase panel; format: biochemical
T1 construct: purchased Millipore KinaseProfiler

PAK4(h) = target: T2, PAK4(h) (Homo sapiens, UniProt O96013); experiment: Kinase panel; format: biochemical
T2 construct: purchased Millipore KinaseProfiler

EphA5(h) = target: T3, EphA5(h) (Homo sapiens, UniProt P54756); experiment: Kinase panel; format: biochemical
T3 construct: purchased Millipore KinaseProfiler

[1] = test system: hematological tumor cell lines; experiment: 3-day proliferation assay (CellTiter-Glo); format: cell-based, human; conditions: for IC50: Homo sapiens
Method in brief: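 Growth inhibition was read by CellTiter-Glo after 3 days' exposure to 0–30 µM compound and expressed against DMSO controls. EC50 was derived by 4- or 6-parameter fitting. Cells were mostly grown in RPMI plus 10% FBS, some in vendor-specified media.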

JNK2α2(h) = target: T4, JNK2α2(h) (Homo sapiens, UniProt P45984); experiment: Kinase panel; format: biochemical
T4 construct: purchased Millipore KinaseProfiler

CDK1/cyclinB(h) = target: T5, CDK1/cyclinB(h) (Homo sapiens, UniProt P06493); experiment: Kinase panel; format: biochemical
T5 construct: purchased Millipore KinaseProfiler

Txk(h) = target: T6, Txk(h) (Homo sapiens, UniProt P42681); experiment: Kinase panel; format: biochemical
T6 construct: purchased Millipore KinaseProfiler
T6 sequence (P42681 1-527): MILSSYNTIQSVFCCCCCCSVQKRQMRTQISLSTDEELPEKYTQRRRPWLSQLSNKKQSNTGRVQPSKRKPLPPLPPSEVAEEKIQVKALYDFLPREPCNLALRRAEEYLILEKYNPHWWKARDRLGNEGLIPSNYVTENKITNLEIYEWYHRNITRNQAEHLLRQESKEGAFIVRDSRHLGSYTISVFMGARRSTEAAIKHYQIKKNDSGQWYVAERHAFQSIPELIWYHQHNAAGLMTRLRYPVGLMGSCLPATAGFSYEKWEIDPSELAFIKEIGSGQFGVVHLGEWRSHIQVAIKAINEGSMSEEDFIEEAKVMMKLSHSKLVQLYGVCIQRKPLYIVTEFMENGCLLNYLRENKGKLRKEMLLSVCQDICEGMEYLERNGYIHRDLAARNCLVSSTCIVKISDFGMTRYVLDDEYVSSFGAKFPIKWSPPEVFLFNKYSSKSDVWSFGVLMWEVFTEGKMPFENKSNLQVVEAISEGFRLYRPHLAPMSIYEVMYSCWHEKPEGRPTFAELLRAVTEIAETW

T4 sequence (P45984 whole entry): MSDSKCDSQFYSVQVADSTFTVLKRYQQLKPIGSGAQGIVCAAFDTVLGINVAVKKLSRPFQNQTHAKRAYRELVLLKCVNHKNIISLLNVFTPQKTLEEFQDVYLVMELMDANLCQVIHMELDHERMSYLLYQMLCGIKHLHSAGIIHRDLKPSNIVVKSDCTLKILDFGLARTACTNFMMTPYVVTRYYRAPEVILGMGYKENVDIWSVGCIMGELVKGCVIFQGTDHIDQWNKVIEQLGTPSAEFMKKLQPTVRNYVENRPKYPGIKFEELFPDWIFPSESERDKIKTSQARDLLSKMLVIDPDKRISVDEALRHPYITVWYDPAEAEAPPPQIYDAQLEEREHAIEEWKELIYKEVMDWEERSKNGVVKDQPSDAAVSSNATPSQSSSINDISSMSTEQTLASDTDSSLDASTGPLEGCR
T3 sequence (P54756 25-1037): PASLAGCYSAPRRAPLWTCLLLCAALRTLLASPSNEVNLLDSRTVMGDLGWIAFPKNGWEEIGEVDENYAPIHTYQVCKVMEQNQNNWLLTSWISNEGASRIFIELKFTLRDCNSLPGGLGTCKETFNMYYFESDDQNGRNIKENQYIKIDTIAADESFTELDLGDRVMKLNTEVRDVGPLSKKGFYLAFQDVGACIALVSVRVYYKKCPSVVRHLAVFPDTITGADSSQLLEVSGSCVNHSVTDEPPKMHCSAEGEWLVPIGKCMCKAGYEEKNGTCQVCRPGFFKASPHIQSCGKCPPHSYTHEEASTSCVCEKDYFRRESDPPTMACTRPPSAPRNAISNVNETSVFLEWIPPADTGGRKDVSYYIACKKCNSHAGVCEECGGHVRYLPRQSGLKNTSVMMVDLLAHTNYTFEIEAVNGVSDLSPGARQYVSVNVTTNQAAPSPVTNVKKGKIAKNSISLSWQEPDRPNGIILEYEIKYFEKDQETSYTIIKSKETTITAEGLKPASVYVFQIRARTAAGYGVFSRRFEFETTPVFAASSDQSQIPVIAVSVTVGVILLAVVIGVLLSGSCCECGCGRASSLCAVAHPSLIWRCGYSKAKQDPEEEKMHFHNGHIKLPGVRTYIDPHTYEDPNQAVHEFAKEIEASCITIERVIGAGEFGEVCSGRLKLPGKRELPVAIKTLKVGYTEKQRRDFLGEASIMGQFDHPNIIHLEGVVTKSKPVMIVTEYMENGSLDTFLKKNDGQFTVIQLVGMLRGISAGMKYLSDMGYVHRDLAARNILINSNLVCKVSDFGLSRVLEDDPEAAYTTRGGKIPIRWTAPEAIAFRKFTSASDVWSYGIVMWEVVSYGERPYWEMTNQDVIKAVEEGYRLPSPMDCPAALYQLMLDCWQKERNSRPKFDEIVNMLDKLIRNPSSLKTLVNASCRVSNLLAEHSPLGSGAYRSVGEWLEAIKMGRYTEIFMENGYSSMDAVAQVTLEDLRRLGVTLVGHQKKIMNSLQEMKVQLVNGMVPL
T5 sequence (P06493 whole entry): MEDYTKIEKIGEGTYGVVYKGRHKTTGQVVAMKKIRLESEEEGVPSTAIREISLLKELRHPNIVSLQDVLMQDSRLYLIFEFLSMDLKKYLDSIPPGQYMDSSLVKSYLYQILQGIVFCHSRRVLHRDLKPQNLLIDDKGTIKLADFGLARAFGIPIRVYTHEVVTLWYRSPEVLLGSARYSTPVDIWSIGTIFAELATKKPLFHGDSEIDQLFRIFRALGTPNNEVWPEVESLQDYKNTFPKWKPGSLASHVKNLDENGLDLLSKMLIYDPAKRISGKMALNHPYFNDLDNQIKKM
T5 sequence (P14635 whole entry partner): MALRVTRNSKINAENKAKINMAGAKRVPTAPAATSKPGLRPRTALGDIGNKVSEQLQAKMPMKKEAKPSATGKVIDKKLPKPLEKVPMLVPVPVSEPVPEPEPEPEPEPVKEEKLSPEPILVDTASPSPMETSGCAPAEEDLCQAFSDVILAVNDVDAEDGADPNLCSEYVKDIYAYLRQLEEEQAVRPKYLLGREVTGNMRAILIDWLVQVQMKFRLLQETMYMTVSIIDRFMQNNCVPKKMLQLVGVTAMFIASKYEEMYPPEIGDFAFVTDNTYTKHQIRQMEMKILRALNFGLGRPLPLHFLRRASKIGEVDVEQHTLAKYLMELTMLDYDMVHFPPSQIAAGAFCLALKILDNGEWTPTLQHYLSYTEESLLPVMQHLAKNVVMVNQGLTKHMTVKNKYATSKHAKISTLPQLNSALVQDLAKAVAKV
T2 sequence (O96013 whole entry): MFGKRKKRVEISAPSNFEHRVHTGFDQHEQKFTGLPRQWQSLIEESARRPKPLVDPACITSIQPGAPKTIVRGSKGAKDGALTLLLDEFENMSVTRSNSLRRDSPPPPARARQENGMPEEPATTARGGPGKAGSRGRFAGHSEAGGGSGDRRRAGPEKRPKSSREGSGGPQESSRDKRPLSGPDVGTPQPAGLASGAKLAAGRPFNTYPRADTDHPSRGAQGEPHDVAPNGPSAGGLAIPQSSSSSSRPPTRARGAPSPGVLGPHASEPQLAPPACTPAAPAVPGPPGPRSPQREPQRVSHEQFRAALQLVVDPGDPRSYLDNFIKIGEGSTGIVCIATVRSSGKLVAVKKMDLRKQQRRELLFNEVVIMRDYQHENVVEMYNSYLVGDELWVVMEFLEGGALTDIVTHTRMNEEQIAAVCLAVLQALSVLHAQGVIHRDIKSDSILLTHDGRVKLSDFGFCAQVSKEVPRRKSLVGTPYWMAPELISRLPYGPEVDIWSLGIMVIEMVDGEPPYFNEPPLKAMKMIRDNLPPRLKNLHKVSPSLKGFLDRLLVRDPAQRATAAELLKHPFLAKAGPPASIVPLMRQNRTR
T1 sequence (P10721 26-976 V560G): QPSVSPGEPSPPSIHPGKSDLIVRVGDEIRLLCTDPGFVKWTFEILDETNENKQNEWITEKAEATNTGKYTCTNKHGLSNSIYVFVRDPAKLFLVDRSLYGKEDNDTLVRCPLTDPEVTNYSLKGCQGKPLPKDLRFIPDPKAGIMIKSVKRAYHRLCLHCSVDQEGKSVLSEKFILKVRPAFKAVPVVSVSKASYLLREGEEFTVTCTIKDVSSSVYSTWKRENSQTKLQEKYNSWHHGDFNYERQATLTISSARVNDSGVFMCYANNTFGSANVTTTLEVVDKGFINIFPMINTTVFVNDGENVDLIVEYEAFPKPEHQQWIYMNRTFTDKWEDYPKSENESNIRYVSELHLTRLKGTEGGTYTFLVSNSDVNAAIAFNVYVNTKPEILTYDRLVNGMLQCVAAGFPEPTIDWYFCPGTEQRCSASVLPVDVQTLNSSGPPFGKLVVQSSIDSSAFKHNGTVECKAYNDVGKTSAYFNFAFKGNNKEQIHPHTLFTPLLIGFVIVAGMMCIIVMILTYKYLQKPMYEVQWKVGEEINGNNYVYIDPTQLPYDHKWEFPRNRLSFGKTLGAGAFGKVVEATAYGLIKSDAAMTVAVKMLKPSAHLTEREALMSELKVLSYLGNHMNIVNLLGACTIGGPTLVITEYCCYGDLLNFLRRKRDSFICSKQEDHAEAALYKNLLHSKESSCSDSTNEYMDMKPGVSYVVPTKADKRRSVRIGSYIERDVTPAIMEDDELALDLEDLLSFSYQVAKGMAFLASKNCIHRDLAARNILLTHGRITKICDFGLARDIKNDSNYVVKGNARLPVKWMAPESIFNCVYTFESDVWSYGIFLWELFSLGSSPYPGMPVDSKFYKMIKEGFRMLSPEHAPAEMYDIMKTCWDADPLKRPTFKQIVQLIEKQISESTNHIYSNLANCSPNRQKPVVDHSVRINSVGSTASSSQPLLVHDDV

Cn1ncc(Cl)c1-c1cc(C(=O)N[C@H](CN)Cc2cccc(F)c2)sc1Cl [GSK2110183]
inhibition at 0.5 µM (cKit(V560G)(h)): -6%
inhibition at 10 µM (cKit(V560G)(h)): 4%
inhibition at 0.5 µM (PAK4(h)): -13%
inhibition at 10 µM (PAK4(h)): 17%
inhibition at 0.5 µM (EphA5(h)): 5%
inhibition at 10 µM (EphA5(h)): 9%
hematological cell lines sensitive (EC50<1 µM) ([1]; 112 cell lines, 3 days, CTG): 65%
IC50 ([1]; 1A2, 1A2 cell line, Burkitt's Lymphoma, B Cell): 104 nM
IC50 ([1]; 697 cell line, ALL, pre-B Cell): 737 nM
IC50 ([1]; ARH-77, ARH77 cell line, Multiple Myeloma, B Cell): 313 nM
IC50 ([1]; B-cell, BDCM cell line, AML, B Cell): 26 nM
IC50 ([1]; B-cell, CESS cell line, AML, B Cell): 475 nM
IC50 ([1]; B-cell, HKB-11 cell line, Burkitt's Lymphoma, B Cell): 167 nM
IC50 ([1]; B-cell, HS-Sultan cell line, Burkitt's Lymphoma, B Cell): 649 nM
IC50 ([1]; B-cell, KARPAS-231 cell line, ALL, B Cell): 119 nM
IC50 ([1]; B-cell, MN60 cell line, ALL, B Cell): 1930 nM
IC50 ([1]; B-cell, Namalwa cell line, Burkitt's Lymphoma, B Cell): 908 nM
IC50 ([1]; B-cell, SD-1 cell line, ALL, B Cell): 10 nM
IC50 ([1]; B-cell, Tanoue cell line, ALL, B Cell): 1040 nM
IC50 ([1]; BC1, BC1 cell line, Burkitt's Lymphoma, B Cell): 2100 nM
IC50 ([1]; BC-3, BC3 cell line, Burkitt's Lymphoma, B Cell): 16300 nM
IC50 ([1]; BV-173, BV173 cell line, CML, pre-B Cell): 1210 nM
IC50 ([1]; CA46, CA46 cell line, Burkitt's Lymphoma, B Cell): 2320 nM
IC50 ([1]; CCRF-CEM, CCRFCEM cell line, ALL, T Cell): 369 nM
IC50 ([1]; CCRF-SB, CCRFSB cell line, ALL, B Cell): 56 nM
IC50 ([1]; CEM/C1, CEM/C1 cell line, ALL, T Cell): 109 nM
IC50 ([1]; CEM/C2, CEM/C2 cell line, ALL, T Cell): 48 nM
IC50 ([1]; CML-T1, CML-T1 cell line, CML, T Cell): 5080 nM
IC50 ([1]; CRO-AP5, CRO-AP5 cell line, Primary Effusion Lymphoma (PEL), B Cell): 67 nM
IC50 ([1]; DB, DB cell line, Non-Hodgkin's Lymphoma, B Cell): 6320 nM
IC50 ([1]; DG-75, DG75 cell line, Burkitt's Lymphoma, B Cell): 14900 nM
IC50 ([1]; DOHH-2, DOHH-2 cell line, Non-Hodgkin's Lymphoma, B Cell): 38 nM
IC50 ([1]; Daudi, DAUDI cell line, Burkitt's Lymphoma, B Cell): 441 nM
IC50 ([1]; EB1, EB1 cell line, Burkitt's Lymphoma, B Cell): 110 nM
IC50 ([1]; EB2, EB2 cell line, Burkitt's Lymphoma, B Cell): 631 nM
IC50 ([1]; EB-3, EB3 cell line, Burkitt's Lymphoma, B Cell): 2970 nM
IC50 ([1]; EM-2, EM2 cell line, CML, Unspecified): 1220 nM
IC50 ([1]; GA-10, GA-10 cell line, Burkitt's Lymphoma, B Cell): 237 nM
IC50 ([1]; GDM-1, GDM-1 cell line, AML, Monoblast): 2820 nM
IC50 ([1]; HD-MY-Z cell line, Hodgkin's Lymphoma, Unspecified): 9120 nM
IC50 ([1]; HEL 92.1.7, HEL92.1.7 cell line, AML, Erythroleukemia): 14100 nM
IC50 ([1]; HH, HH cell line, Non-Hodgkin's Lymphoma (CTCL), T Cell): 301 nM
IC50 ([1]; HL-60, HL-60 cell line, AML, Myeloblast): 2580 nM
IC50 ([1]; HSB2, HSB2 cell line, ALL, T Cell): 5350 nM
IC50 ([1]; HT, HT cell line, Burkitt's Lymphoma, B Cell): 206 nM
IC50 ([1]; HuT78, HuT78 cell line, Non-Hodgkin's Lymphoma (CTCL), T Cell): 544 nM
IC50 ([1]; J.gamma1, J.Gamma-1 cell line, ALL, T Cell): 57 nM
IC50 ([1]; JIYOYE, JIYOYE cell line, Burkitt's Lymphoma, B Cell): 1850 nM
IC50 ([1]; JM1, JM1 cell line, Burkitt's Lymphoma, pre-B Cell): 759 nM
IC50 ([1]; Jurkat, Jurkat cell line, ALL, T Cell): 28 nM
IC50 ([1]; K562, K562 cell line, CML, Lymphoblast): 4450 nM
IC50 ([1]; KG-1, KG-1 cell line, AML, B Cell): 61 nM
IC50 ([1]; KU812, Ku812 cell line, CML, Basophilic Leukocyte): 187 nM
IC50 ([1]; Kasumi 1, Kasumi-1 cell line, AML, Myeloblast): 131 nM
IC50 ([1]; Kasumi-2 cell line, AML, Myeloblast): 996 nM
IC50 ([1]; L-428, L428 cell line, Hodgkin's Lymphoma, Unspecified): 1.35 nM
IC50 ([1]; MC116, MC116 cell line, Burkitt's Lymphoma, B Cell): 1080 nM
IC50 ([1]; MEG-01, MEG01 cell line, CML, Megakaryoblastic): 6140 nM
IC50 ([1]; MHH-CALL-3 cell line, ALL, pre-B Cell): 1220 nM
IC50 ([1]; MHH-PREB-1, MHH-PREB-1 cell line, Non-Hodgkin's Lymphoma, B Cell): 1920 nM
IC50 ([1]; ML-2, ML-2 cell line, AML, Myelomonocytic): 981 nM
IC50 ([1]; MOLT-3, MOLT3 cell line, ALL, T Cell): 62 nM
IC50 ([1]; MOLT-4, Molt-4 cell line, ALL, T Cell): 14 nM
IC50 ([1]; MOLT-16, MOLT16 cell line, ALL, T Cell): 481 nM
IC50 ([1]; MV4-11, MV-4-11 cell line, AML, Myelomonocytic): 1270 nM
IC50 ([1]; NALM-6, Nalm-6 cell line, ALL, pre-B Cell): 352 nM
IC50 ([1]; NC-37, NC-37 cell line, Burkitt's Lymphoma, B Cell): 1780 nM
IC50 ([1]; NOMO-1, Nomo-1 cell line, AML, B Cell): 104 nM
IC50 ([1]; NU-DHL-1, NU-DHL-1 cell line, Burkitt's Lymphoma, B Cell): 64 nM
IC50 ([1]; OCI-AML2, OCI-AML-2 cell line, AML, B Cell): 10300 nM
IC50 ([1]; OCI-AML-3, OCI-AML-3 cell line, AML, B Cell): 113 nM
IC50 ([1]; OCI-M1, OCI-M1 cell line, AML, B Cell): 1130 nM
IC50 ([1]; P3HR-1, P3HR-1 cell line, Burkitt's Lymphoma, B Cell): 69 nM
IC50 ([1]; PLB-985, PLB985 cell line, AML, B Cell): 2990 nM
IC50 ([1]; Pfeiffer, Pfeiffer cell line, Non-Hodgkin's Lymphoma, B Cell): 13 nM
IC50 ([1]; RCH-ACV cell line, ALL, pre-B Cell): 668 nM
IC50 ([1]; RCK8, RC-K8 cell line, Non-Hodgkin's Lymphoma (Histiocytic), B Cell): 5390 nM
IC50 ([1]; REH, Reh cell line, ALL, pre-B Cell): 292 nM
IC50 ([1]; RL, RL cell line, Non-Hodgkin's Lymphoma, B Cell): 225 nM
IC50 ([1]; RPMI-6666, RPMI 6666 cell line, Hodgkin's Lymphoma, Lymphoblast): 135 nM
IC50 ([1]; RS4-11, RS4;11 cell line, ALL, B Cell): 539 nM
IC50 ([1]; Raji, Raji cell line, Burkitt's Lymphoma, B Cell): 6590 nM
IC50 ([1]; Rec1, REC-1 cell line, Non-Hodgkin's Lymphoma, B Cell): 3690 nM
IC50 ([1]; SC-1, SC1 cell line, Burkitt's Lymphoma, B Cell): 2130 nM
IC50 ([1]; SEM cell line, ALL, pre-B Cell): 347 nM
IC50 ([1]; SKO-007, SKO-007 cell line, Multiple Myeloma, B Cell): 6770 nM
IC50 ([1]; SR, SR cell line, Non-Hodgkin's Lymphoma, Lymphoblast): 2510 nM
IC50 ([1]; ST486, ST486 cell line, Burkitt's Lymphoma, B Cell): 2450 nM
IC50 ([1]; SU-DHL10, SU-DHL-10 cell line, Non-Hodgkin's Lymphoma, B Cell): 175 nM
IC50 ([1]; SU-DHL-4, SU-DHL-4 cell line, Non-Hodgkin's Lymphoma, B Cell): 114 nM
IC50 ([1]; SU-DHL-5, SU-DHL-5 cell line, Non-Hodgkin's Lymphoma, B Cell): 153 nM
IC50 ([1]; SU-DHL-6, SU-DHL-6 cell line, Non-Hodgkin's Lymphoma, B Cell): 63 nM
IC50 ([1]; SU-DHL-16, SU-DHL-16 cell line, Non-Hodgkin's Lymphoma, B Cell): 62 nM
IC50 ([1]; SUP-B15, SUP B15 cell line, ALL, B Cell): 1940 nM
IC50 ([1]; T-cell, 8E5 cell line, ALL, T Cell): 43 nM
IC50 ([1]; T-cell, CEM/C3 cell line, ALL, T Cell): 35 nM
IC50 ([1]; T-cell, I2.1 cell line, ALL, T Cell): 48 nM
IC50 ([1]; T-cell, J.Cam.1.6 cell line, ALL, T Cell): 110 nM
IC50 ([1]; T-cell, J.RT-T3.5 cell line, ALL, T Cell): 54 nM
IC50 ([1]; T-cell, JR45.01 cell line, ALL, T Cell): 33 nM
IC50 ([1]; T-cell, LOUCY cell line, ALL, T Cell): 63 nM
IC50 ([1]; T-cell, MJ cell line, Non-Hodgkin's Lymphoma (CTCL), T Cell): 4730 nM
IC50 ([1]; T-cell, SUPTI(VB) cell line, ALL, T Cell): 200 nM
IC50 ([1]; TO 175.T, TO 175.T cell line, Hodgkin's Lymphoma, Unspecified): 8490 nM
IC50 ([1]; Toledo, Toledo cell line, Non-Hodgkin's Lymphoma, B Cell): 1150 nM
IC50 ([1]; U-937, U937 cell line, Non-Hodgkin's Lymphoma (Histiocytic), Monocyte): 26 nM
inhibition at 0.5 µM (JNK2α2(h)): -15%
inhibition at 10 µM (JNK2α2(h)): -13%
inhibition at 0.5 µM (CDK1/cyclinB(h)): -3%
inhibition at 10 µM (CDK1/cyclinB(h)): 7%
inhibition at 0.5 µM (Txk(h)): -9%
inhibition at 10 µM (Txk(h)): 15%
